{"source": "patent US10449213B2", "about": "“Combinatorial approach to treating Alzheimer's disease” (Florida State University Research Foundation, Inc., priority 2011, dated 2019)", "key": {"Aβ(1-40) peptide [1]": {"target": "T1, Aβ(1-40) peptide (Homo sapiens, UniProt P05067)", "T1 construct": "Synthetic Aβ(1-40) peptide was purchased from Biopeptide, Inc; purchased Biopeptide, Inc; host or cells: chemical synthesis", "T1 sequence (P05067 672-711 limits assumed)": "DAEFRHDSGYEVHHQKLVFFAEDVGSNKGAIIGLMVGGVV", "experiment": "Thioflavin T fluorescence, fibril formation by Aβ(1-40)", "format": "biochemical", "details": "Aβ(1-40) 30 μM, 37° C.", "description": "Thioflavin T Fluorescence Spectroscopy Experiments on Amyloid-Beta Peptide in the Presence of Vitamin B12. The Fluorescence signal was measured as previously described using a Biotek Flx800 fluorescence microplate reader. Aβ(1-40) peptide samples (30 μM) were incubated at 37° C. in the presence or absence of B12. Following incubation, ThT was added to a final concentration of 10 μM as a probe for fibril formation by Aβ(1-40). All fluoresce readings were corrected for 10 mM sodium phosphate buffer contribution. Thioflavin T (ThT) (Sigma Aldrich) was reconstituted in Nanopure water, aliquoted, and stored at −20° C. Concentration of ThT was determined using UV-Vis spectroscopy (Cary300 spectrophotometer, Varian, Inc) and an extinction coefficient of 36,000 M^−1 cm^−1 at 412 nm."}, "hippocampal neurons": {"system": "hippocampal neurons", "experiment": "Aβ-induced neuronal cell death in hippocampal cell culture, Trypan Blue counting", "format": "cell-based, Wistar rat", "details": "pre-aggregated Aβ(1-40) 25 μM, B12 50, 25 or 12.5 μM, 72 hours", "description": "Neuronal Cell Culture Experiments. Neuronal cell culture experiments were conducted using methodologies described previously by Lee, et al in Cell, Vol. 111(2), pages 219-230 (2002); Lei, et al in EMBO J, Vol. 21(12), pages 2977-2989 (2002); Xin, et al in J Neurosci, Vol. 25(1), pages 139-48 (2005); and Xin, et al in European Journal of Neuroscience, Vol. 21(3), pages 622-636 (2005).\nBriefly, hippocampal tissue was dissected from Wistar rat embryos (18 days gestation or E18) at 4° C. Dissociated hippocampal neurons were plated at a density of approximately 2.0×10^4 cells/cm^2 onto 35 mm culture dishes coated with poly-D-lysine. Neurons were matured in culture for 21 days in vitro in NEUROBASAL® media (Invitrogen) supplemented with B27 (2%), bFGF2 (2 ng/mL) and L-glutamine (0.5 mM). The Aβ(1-40) was dissolved in DMSO, followed by dilution into culture medium (final DMSO concentration was 1%), and incubation at 37° C. for three days to form Aβ(1-40) oligomeric species. […]\nTrypan Blue Staining and Cell Counting. […] Five random fields, one from each corner and one from the center of the dish, were counted for both live and dead cells at 63× magnification to obtain a percentage of cell death. […]\nThe physiological relevance of the B12/Aβ interaction was evaluated using neuronal cell culture experiments. […]"}, "Aβ(1-40)": {"target": "T2, Aβ(1-40) (Homo sapiens, UniProt P05067)", "T2 construct": "Synthetic Aβ(1-40) peptide was purchased from Biopeptide, Inc; purchased Biopeptide, Inc; host or cells: chemical synthesis", "T2 sequence (P05067 672-711 limits assumed)": "as above", "experiment": "Surface plasmon resonance (Biacore T-200), immobilized Aβ(1-40)", "details": "freshly prepared Aβ(1-40) immobilized on CM5 chip, 25° C., fit to 1:1 binding model; read-out: binding constant (SPR)", "description": "Surface Plasmon Resonance (SPR) Experiments. The binding of Aβ(1-40) and vitamin B12 was analyzed by SPR using a Biacore T-200 optical biosensor (Biacore/GE Healthcare). The Aβ peptide was immobilized on CM5 sensor chips using amine coupling chemistry. Briefly, the carboxymethyl dextran surface of a CM5 sensor chip was activated with a 1:1 mixture of 0.4 M 1-ethyl-3-(3-dimethylaminopropyl)-carbodiimide (EDC) and 0.1 M N-hydroxysuccinimide (NHS) at 25° C. A peptide surface (400-800 RU) was created by pulsing Aβ in 10 mM sodium acetate at pH 4.5 over the flow cell. The remaining binding sites on the dextran surface were blocked with […], pH 8.5. A reference surface was activated and blocked as outlined above.\nBinding experiments were carried out using HBS-EP+ running buffer (0.1 M Hepes, 1.5 M NaCl, 30 mM EDTA, 0.05% v/v surfactant P-20, pH 7.4) at 25° C. All components were 0.22 μm-filtered prior to use. […] Data were analyzed using T200 BiaEvaluation 1.0 (Biacore) software and fit to a 1:1 binding model.\nIn the SPR experiments, freshly prepared Aβ(1-40) was immobilized on a chip. […] Referring to FIG. 7, a concentration dependent change in the refractive index at the surface of the chip was detected. This change, reflective of the Aβ peptide/B12 interaction, was monitored in real time. […]"}, "Aβ(1-40) peptide [2]": {"target": "T1, Aβ(1-40) peptide", "experiment": "Intrinsic tyrosine fluorescence titration of Aβ(1-40) with vitamin B12", "details": "50 μM in PBS, 25° C., 1:1 binding stoichiometry, read-out: binding constant, KD", "description": "Samples of Aβ(1-40) were reconstituted in phosphate buffer saline (PBS) (137 mM NaCl, 2.7 mM KCl, 10 mM Na2HPO4, 2 mM KH2PO4, pH 7.4), except in surface plasmon resonance experiments, as described below. Immediately after reconstitution into PBS, the pH of the solution was adjusted to 10, allowing for solubilization of the peptide. The pH was then readjusted to 7.4, followed by filtration through a 0.22 μm supor membrane filter. Concentrations of Aβ(1-40) were determined using UV-Vis spectroscopy (Cary 300 spectrophotometer, Varian, Inc) and an extinction coefficient of 1,490 M^−1 cm^−1 at 280 nm. Aβ(1-40) samples used in fluorescence experiments to examine peptide/B12 binding included freshly prepared, monomeric Aβ species and “aged” Aβ, incubated for seven days and containing high-molecular weight species.\nPreparation of Vitamin B12 Samples. […] Concentrations of B12 were determined using UV-Vis spectroscopy (Cary300 spectrophotometer, Varian, Inc) and an extinction coefficient of 4,900 M^−1 cm^−1 at 525 nm.\nIntrinsic Tyrosine Fluorescence Spectroscopy Experiments on Amyloid-Beta Peptide in the Presence of Vitamin B12. Intrinsic tyrosine fluorescence was measured as previously described by Lakowicz in Principles of Fluorescence Spectroscopy. […] The binding constant, KD, was calculated using equation (1) in SigmaPlot 9.0 (Systat Software, Inc.) assuming 1:1 binding stoichiometry. […]"}}, "note": "Like-named read-outs stand apart in the source and are kept apart here."}
{"molecule": "C/C1=C2/[N-][C@H]([C@H](CC(N)=O)[C@@]2(C)CCC(=O)NC[C@@H](C)OP(=O)([O-])O[C@H]2[C@@H](O)[C@@H](n3cnc4cc(C)c(C)cc43)O[C@@H]2CO)[C@]2(C)N=C(/C(C)=C3N=C(/C=C4N=C1[C@@H](CCC(N)=O)C\\4(C)C)[C@@H](CCC(N)=O)[C@]\\3(C)CC(N)=O)[C@@H](CCC(N)=O)[C@]2(C)CC(N)=O.[Co+3].[OH-]", "note": "[vitamin B12, hydroxocobalamin]", "values": [{"measurement": "ThT fluorescence after addition to pre-formed Aβ(1-40) aggregates (fibril dissociation)", "setting": "Aβ(1-40) peptide [1]; B12 added to fibrils formed in its absence", "result": "reduction of the ThT fluorescence"}, {"measurement": "ThT fluorescence signal of Aβ(1-40) incubated in the presence of vitamin B12 (self-association)", "setting": "Aβ(1-40) peptide [1]; incubated with B12", "result": "no increase in the ThT fluorescence signal"}, {"measurement": "neuronal cell death upon addition of amyloid-beta peptide", "setting": "hippocampal neurons", "result": "alleviated"}, {"measurement": "Kd", "setting": "Aβ(1-40)", "result": 132, "unit": "µM"}, {"measurement": "Kd", "setting": "Aβ(1-40) peptide [2]; monomeric (freshly prepared) Aβ(1-40)", "result": "87 ± 2.7", "unit": "µM"}, {"measurement": "Kd", "setting": "Aβ(1-40) peptide [2]; self-associated (aged, seven days) Aβ(1-40)", "result": "96.1 ± 3.5", "unit": "µM"}]}
